For test [1], the system named is E. coli purine repressor PurR variant Arg190Gln. The settings on record: Lu et al. 1998; cited from earlier work.
For test [2], the target named is T1, FLIPpur (His6-eCFP-PurR-eYFP fusion of E. coli purine repressor PurR, residues 56 to 341, Arg190Gln, Leu263Pro) (Escherichia coli, UniProt P0ACP7, L263P/R190Q).
T1 construct: expressed in E. coli BL21(DE3)gold, purified
In words: hypoxanthine titration of FLIPpur by FRET ratio change. Type of test: binding.
Text: FLIPW and FLIPpur constructs were harbored in E. coli BL21(DE3)gold and sensor proteins were produced and purified as described previously (Fehr et al. 2002).

The target in test [3] is T2, FLIPW-CTY (eCFP-TrpR-Venus) (Escherichia coli, UniProt P0A881).
T2 construct: made in house; host or cells: E. coli BL21(DE3)gold
In words: In vitro FRET titration of FLIPW-CTY with tryptophan substrates. Type of test: binding, E. coli. Conditions: for Kd: 20 mM MOPS pH 7.0, read-out: Affinity of FLIPW-CTY for tryptophan substrate. As to the method:
(§1) In Vitro Characterization of FLIPW and FLIPpur Sensors: Purified sensor was added to a dilution series of ligand in 20 mM MOPS pH 7.0 (FLIPW) or 20 mM MES pH7.0 (FLIPpur) in the range of 10^−2 to 10^−6 M and analyzed in a monochromator microplate reader (Safire, Tecan, Austria; excitation 433/12 nm, emission 485/12 and 528/12 nm). Protein was diluted to give Venus/eYFP readouts of 20,000 to 30,000 at a manual gain between 70-75. By using the change in FRET ratio upon binding of ligand, binding constants (Kd) were determined by fitting the substrate titration curves to a single-site-binding isotherm. Formulas for decrease in ratio upon ligand binding:
(§2) R=Rmax−(n·[S])/(Kd+[S])·(Rmax−Rmin)
(§3) with [S], substrate concentration; n, number of equal binding sites; R, ratio; Rmax, maximum ratio in the absence of ligand; and Rmin, minimum ratio at saturation with ligand. Formula for increase in ratio upon ligand binding:
(§4) R=Rmin+(Rmax−Rmin)·(n·[S])/(Kd+[S])
(§5) with [S], substrate concentration; n, number of equal binding sites; R, ratio; Rmax, maximum ratio at saturation with ligand; and Rmin, minimum ratio in absence of ligand. Three independent protein preparations were analyzed and each protein preparation was analyzed in triplicate.

For test [4], the target named is FLIPW-TCTY (TrpR-eCFP-TrpR-Venus fusion of E. coli tryptophan repressor TrpR, SEQ ID NO: 5) (Escherichia coli, UniProt P0A881). In words: L-tryptophan titration of FLIPW-TCTY by FRET ratio change. The settings on record: 20 mM MOPS pH 7.0, apparent binding constant.
The subject of test [5] is COS-7 cells. In words: tryptophan uptake by COS-7 cell cultures in 96-well microplates monitored with FLIPW-CTYT. It is filed as cell-based, monkey. Conditions: in words. The procedure: (§6) Tissue Culture and Transfection: For cytosolic expression in COS-7 cells, the gene encoding CTYT was amplified by PCR with primers encoding unique BamHI and EcoRI restriction sites at the 5′ and 3′ end, respectively, and cloned into BamHI/EcoRI digested pcDNA3.1(+) vector (Invitrogen), resulting in plasmid pTK222. COS-7 cells were grown in Dulbecco's modified Eagle's medium (high glucose; DMEM, Gibco) with 10% fetal calf serum and 50 μg/ml penicillin and streptomycin (Gibco). Cells were cultured at 37° C. and 5% CO2. For imaging, cells were cultured in 8-well LabTekII German tissue culture glass slides (Nalg Nunc International) and transiently transfected at 50-70% confluence using Lipofectamine 2000 Reagent (Invitrogen) in Opti-MEM I reduced serum medium (Gibco). After transfection, cells were cultured for 16 hours in Opti-MEM followed by 3 hours in DMEM prior to imaging.
(§7) Microplate Assays: Adherent cells in 96-well microplates were washed once with 100 μl Tyrode's buffer (119 mM NaCl, 2.5 mM KCl, 2 mM CaCl2, 2 mM MgCl2, 25 mM HEPES, 30 mM glucose, pH 7.3-7.4).

Test [6] deals with COS-7 cells. Conditions: read-out: apparent KM for combined transport and metabolism. As to the method:
as §6, §7

A further test addresses T3, LAT2 (Homo sapiens, UniProt Q9UHI5).
T3 construct: host or cells: Xenopus oocytes
T3 sequence (Q9UHI5 1-535): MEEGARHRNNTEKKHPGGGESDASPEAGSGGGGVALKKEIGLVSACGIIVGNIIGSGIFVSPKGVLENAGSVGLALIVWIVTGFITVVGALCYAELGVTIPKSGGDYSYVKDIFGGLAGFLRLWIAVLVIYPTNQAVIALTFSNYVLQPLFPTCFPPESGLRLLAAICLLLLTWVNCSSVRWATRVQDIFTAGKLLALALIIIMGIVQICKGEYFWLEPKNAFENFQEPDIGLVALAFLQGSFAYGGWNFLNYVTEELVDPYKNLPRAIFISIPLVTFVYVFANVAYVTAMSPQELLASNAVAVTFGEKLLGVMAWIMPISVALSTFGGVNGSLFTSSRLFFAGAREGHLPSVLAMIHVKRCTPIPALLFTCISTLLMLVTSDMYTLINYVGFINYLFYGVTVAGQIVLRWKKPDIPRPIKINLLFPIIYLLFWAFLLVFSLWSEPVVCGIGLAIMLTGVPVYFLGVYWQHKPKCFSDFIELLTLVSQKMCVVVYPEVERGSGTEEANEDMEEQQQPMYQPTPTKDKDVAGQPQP
Conditions: LAT2 in Xenopus oocytes (Pineda et al. 1999); cited from earlier work.

Another test deals with T4, human TAT1 (Homo sapiens, UniProt Q8TF71).
T4 construct: host or cells: Xenopus oocytes
T4 sequence (Q8TF71 1-515): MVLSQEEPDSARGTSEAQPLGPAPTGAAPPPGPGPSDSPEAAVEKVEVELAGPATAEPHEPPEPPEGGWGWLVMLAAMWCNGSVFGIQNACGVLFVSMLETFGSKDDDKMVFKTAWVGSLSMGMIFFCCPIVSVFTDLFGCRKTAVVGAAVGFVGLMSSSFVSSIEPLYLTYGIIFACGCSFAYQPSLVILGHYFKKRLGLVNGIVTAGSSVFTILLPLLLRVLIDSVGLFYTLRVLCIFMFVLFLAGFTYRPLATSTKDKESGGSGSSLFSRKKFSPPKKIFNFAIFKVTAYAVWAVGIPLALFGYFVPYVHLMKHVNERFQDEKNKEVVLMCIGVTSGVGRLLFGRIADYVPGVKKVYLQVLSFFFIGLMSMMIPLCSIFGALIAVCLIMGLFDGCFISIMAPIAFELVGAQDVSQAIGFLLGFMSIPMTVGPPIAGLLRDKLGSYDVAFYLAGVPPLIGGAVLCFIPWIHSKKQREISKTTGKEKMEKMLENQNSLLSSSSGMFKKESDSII
Conditions: human TAT1 in Xenopus oocytes (Kim et al. 2002); cited from earlier work.

For test [7], the system named is E. coli tryptophan operon repressor TrpR, wild-type, SEQ ID NO: 1. Conditions: Marmorstein et al. 1987; cited from earlier work.
The target in test [8] is T5, FLIPW-CTYT (eCFP-TrpR-Venus-TrpR) (Escherichia coli, UniProt P0A881).
T5 construct: The gene products of pTK203, pTK204, and pTK205 were denoted FLIPW-TCTY, FLIPW-CTYT, and FLIPW-CTTY, respectively; made in house; host or cells: E. coli BL21(DE3)gold
In words: In vitro FRET titration of FLIPW-CTYT with tryptophan substrates. Conditions: 20 mM MOPS pH 7.0; read-out: Affinity of FLIPW-CTYT for tryptophan substrate. It is filed as binding, E. coli. As to the method: as §1, §2, §3, §4, §5

Test [9] deals with FLIPW-CTY (eCFP-TrpR-Venus fusion of E. coli tryptophan repressor TrpR, SEQ ID NO: 3) (Escherichia coli, UniProt P0A881). In words: L-tryptophan analog titration of FLIPW-CTY by FRET ratio change, single-site-binding isotherm. Conditions: FLIPW-CTY Kd compared with free TrpR (Marmorstein et al. 1987); larger than free TrpR.
Text: The protein sequence encoded on pTK164 was denoted FLIPW-CTY.

T1 sequence (P0ACP7 56-341 R190Q/L263P): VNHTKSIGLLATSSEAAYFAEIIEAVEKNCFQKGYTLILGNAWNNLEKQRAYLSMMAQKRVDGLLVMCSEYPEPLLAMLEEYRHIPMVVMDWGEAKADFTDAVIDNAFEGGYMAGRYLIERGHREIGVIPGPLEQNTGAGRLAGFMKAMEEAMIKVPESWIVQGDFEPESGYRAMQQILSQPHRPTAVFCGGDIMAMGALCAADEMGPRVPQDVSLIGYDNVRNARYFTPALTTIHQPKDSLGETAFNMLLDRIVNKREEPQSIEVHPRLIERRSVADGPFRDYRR

`O=c1[nH]cnc2nc[nH]c12` [hypoxanthine]: the “Kd of free PurR Arg190Gln compared with FLIPpur” value in test [1] is “identical to that of free PurR Arg190Gln”. The Kd in [2] worked out at 5.6 ± 0.7 µM.

Turning to `N[C@@H](Cc1c[nH]c2ccc(O)cc12)C(=O)O` [L-5-hydroxy-tryptophan], the Kd in test [3] is 6000 ± 800 µM.

Regarding `N[C@H](Cc1c[nH]c2ccccc12)C(=O)O` [D-tryptophan], in [3], the Kd stood at 3100 ± 300 µM. Moreover, the “Concentration giving decrease of FRET ratio relative to L-tryptophan” value in test [3] (titration of FLIPW-CTY, higher concentrations than L-tryptophan) is “about 5 fold”.

Consider `Cc1ccc2[nH]cc(C[C@H](N)C(=O)O)c2c1` [L-5-methyl-tryptophan], for which the Kd in test [3] was 60 ± 10 µM.

The term Km denotes the concentration of substrate that gives half-maximal velocity. Consider `N[C@@H](Cc1c[nH]c2ccccc12)C(=O)O` [L-tryptophan], for which the Kd in [4] turned out to be 20 µM; in test [3], 220 ± 20 µM; in test [8], 210 ± 20 µM. Also, the “effective KM for combined tryptophan uptake and metabolism” value in the test on COS-7 cells [5] is “in the micromolar range”. For the same molecule, in the test on COS-7 cells [6], the Km turned out to be 0.88 ± 0.27 µM. Moreover, the Tryptophan uptake affinity at LAT2 is 58 µM; at human TAT1 it was 450 µM. Also, in test [7], the affinity entry is given as “micromolar affinity”. In [9], the “apparent Kd relative to free TrpR” value is “about an order of magnitude”.

Values taken from patent US20080311047A1, “Multimetric Biosensors and Methods of Using Same” (priority 2005, published 2008).
